Laboratory results from US20100261710A1, “HDAC Inhibitors” (ARQULE, INC., priority 2007, published 2010).

Experiments:
[1] = system: HDACs (nuclear HeLa extract); assay: pan-HDAC fluorescent biochemical assay with nuclear HeLa extract; conditions: HDAC peptide substrate, 60 min at 37° C.
Method: Substrate was synthesized in house. Stocks were prepared in DMSO (10 mM).
Compound working solution: Compounds dissolved in assay buffer at 4× Screening concentration. Activator solution: Trypsin (10 mg/mL) diluted 1:1600 in Assay Buffer containing 4 μM TSA.
Total reaction Volume: 40 μL
Reaction was allowed to run for 60 minutes at 37° C.
2. Combine in a white ½ area well plate: 10 μl of 4× compound (or buffer), 15 μl of substrate and 15 μl of HeLa extract. Mix well
3. Incubate at 37° C. for 60 min.
4. Prepare Activator solution. Dilute Trypsin 1:1600 in Assay Buffer+4μM TSA. 20 μl is needed per assay point.
5. Add 20 μl of prepared activator solution and mix thoroughly.
The hydroxamic-acid based compounds of the present invention were tested in the biochemical assay for their pan-HDAC inhibitory activity.

HCT-116 cells = assay: MTS cell viability assay, HCT-116; format: cell-based; conditions: Homo sapiens, HCT-116, 72 h, read-out: HCT-116, IG50, MTS (uM)
Method: The MTS cell viability assay was used to determine the potency of proliferation inhibitor with. MTS measures mitochondrial dehydrogenase activity and serves as surrogate readout for the number of viable cells.
For MTS assay, cells were plated in 96-well plates at 2000 cells per well and incubated in the presence of compounds for 72 hr. MTS was added to each well as instructed by manufacture (Promega) and plates were incubated for 4 h at 37° C. The absorbance of each well was measured at 490 nm using a microplate reader.

HDAC1 = target: T1, HDAC1 (Homo sapiens, UniProt Q13547); assay: HDAC-1 immunocapture fluorescent biochemical assay (HeLa lysate); conditions: HDAC1 immunocaptured from HeLa extract
T1 construct: cell extract containing HDAC (HeLa in these experiments); endogenous in cells; host or cells: HeLa cell extract
T1 sequence (Q13547 whole entry): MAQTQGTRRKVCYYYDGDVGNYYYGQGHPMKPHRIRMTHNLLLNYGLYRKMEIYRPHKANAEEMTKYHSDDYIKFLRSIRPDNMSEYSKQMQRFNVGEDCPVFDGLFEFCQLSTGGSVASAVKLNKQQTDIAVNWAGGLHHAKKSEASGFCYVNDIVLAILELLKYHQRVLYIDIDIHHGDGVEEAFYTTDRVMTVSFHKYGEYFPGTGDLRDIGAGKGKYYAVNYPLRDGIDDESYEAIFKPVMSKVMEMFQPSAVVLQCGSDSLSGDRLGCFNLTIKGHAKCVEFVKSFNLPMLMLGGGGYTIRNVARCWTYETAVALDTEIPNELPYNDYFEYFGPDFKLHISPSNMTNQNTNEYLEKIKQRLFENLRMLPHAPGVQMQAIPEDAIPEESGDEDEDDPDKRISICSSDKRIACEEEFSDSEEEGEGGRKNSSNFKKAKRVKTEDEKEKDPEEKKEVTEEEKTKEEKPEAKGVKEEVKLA
Method: The HDAC-1 assay represents a novel immunocapture assay procedure. […] The HDAC1 is captured on a protein A coated plate using HDAC1 specific antibody, and is then allowed to react with the substrate.
This assay in performed in four general steps. In the first step (FIG. 1A), cell extract containing HDAC (HeLa in these experiments) is incubated with (cell signaling) rabbit polyclonal HDAC1 antibody (rabbit IgG antibody is used for background control) to allow binding of the enzyme to the antibody. In the second step, the complexed mixture is added to the protein A covered plate which captures the antibody. In the third step, after washing away unbound proteins, substrate and inhibitor are added and deacetylation is allowed to occur. […] The plate is then read on either Victor or Perkin Elmer Envision system using Umbilliferone filter set.
• A. HeLa extract complexed with HDAC1 antibody working solution (in DPBS):
Compound working solution (in HDAC buffer):
Compounds diluted in assay buffer at 2× Screening concentration. • D. Activator solution:
Trypsin (10 mg/mL) diluted 1:1600 in assay buffer containing 4 μM TSA.
Complexing of extract with antibody was carried out at room temperature for 60 min with rocking. Binding of complexes onto protein A plate was carried out at room temperature for 60 min in 50 μL. Reaction was carried out in […], in the protein A plate for 60 minutes at 37° C. 40 μL of the reaction was moved into white ½ area plate for activation and reading.
• 1. Set PIERCE Protein A plate to block with 150 μof 5% BSA in TB ST for 60 min at room temperature. • 2. […] Dilute complexes further ([…]) by addition of 3.5 mL of PBS (final total volume of 5 mL). • 4. Wash blocked protein A plate prior to complex addition with TBST. • 5. Add 50 μl of diluted complexes to Protein A plate and incubate for 60 min at room temperature. • 6. Wash plate with TB ST. • 7. Add 25 μl of diluted compounds (in HDAC buffer) to each well and incubate for 10 min at room temperature. • 8. […] Move 40 μl of reaction to a white plate and add 20 μl of activator/developer solution, mix thoroughly. • 10. Read plate.

With `Nc1ccccc1NC(=O)CCCCCCNC(=O)c1cn2c3c(cccc13)CCC2` [compound 20, N-{7-[(2-aminophenyl)amino]-7-oxoheptyl}-5,6-dihydro-4H-pyrrolo[3,2,1-ij]quinoline-1-carboxamide] the IC50 [1] was 4390 nM and the melting point was 144 to 145 °C.
`O=C(CCCCNC(=O)c1cn2c3c(cccc13)CCC2)NO` [compound 5, N-[5-(hydroxyamino)-5-oxopentyl]-5,6-dihydro-4H-pyrrolo[3,2,1-ij]quinoline-1-carboxamide] gave an IC50 [1] of 809 nM, an IC50 (HCT-116 cells) of 5.81 µM and a melting point of 179 to 181 °C. For the same molecule, the IC50 (HDAC1) was 583 nM.
Molecule `O=C(CCCCCCCNC(=O)c1cn2c3c(cccc13)CCC2)NO` has a melting point of 174 to 176 °C.
`O=C(CCCCCCN(Cc1ccccc1)C(=O)c1cn2c3c(cccc13)CCC2)NO` [compound 14, N-benzyl-N-[7-(hydroxyamino)-7-oxoheptyl]-5,6-dihydro-4H-pyrrolo[3,2,1-ij]quinoline-1-carboxamide] showed an IC50 [1] of 780 nM, an IC50 (HCT-116 cells) of 3.8 µM and a melting point of 71 to 73 °C.
In the case of `Nc1cc(Cl)c(Cl)cc1NC(=O)CCCCCCNC(=O)c1cn2c3c(cccc13)CCC2` [compound 21, N-{7-[(2-amino-4,5-dichlorophenyl)amino]-7-oxoheptyl}-5,6-dihydro-4H-pyrrolo[3,2,1-ij]quinoline-1-carboxamide], the IC50 [1] is reported as 15500 nM and the melting point is reported as 124 to 125 °C.
For `COc1cccc(-c2cn3cc(C(=O)NCCCCCCC(=O)NO)sc3n2)c1` [compound 22, N-[7-(hydroxyamino)-7-oxoheptyl]-6-(3-methoxyphenyl)imidazo[2,1-b][1,3]thiazole-2-carboxamide], the IC50 [1] was 487 nM and the melting point was 209 to 211 °C.
`CC(=O)CCC1CCN(C(=O)c2cn3c4c(cccc24)CCC3)CC1` [compound 19, 4-[1-(5,6-dihydro-4H-pyrrolo[3,2,1-ij]quinolin-1-ylcarbonyl)piperidin-4-yl]butan-2-one] gave an IC50 [1] of 20000 nM.
For `O=C(Cc1ccc(NC(=O)c2cn3c4c(cccc24)CCC3)cc1)NO` [compound 16, N-{4-[2-(hydroxyamino)-2-oxoethyl]phenyl}-5,6-dihydro-4H-pyrrolo[3,2,1-ij]quinoline-1-carboxamide], the IC50 [1] was 2000 nM and the melting point was 199 to 202 °C.
